Biological target: CCR2 (Homo sapiens (Human), UniProt P41597)
Experiment: Calcium activity assayed on the FLIPR Tetra in HEK-Gqi5 cells stably expressing CCR2
Format: cell-based
Details: FLIPR Tetra calcium assay

Chain of CCR2 (P41597 whole entry, species assumed): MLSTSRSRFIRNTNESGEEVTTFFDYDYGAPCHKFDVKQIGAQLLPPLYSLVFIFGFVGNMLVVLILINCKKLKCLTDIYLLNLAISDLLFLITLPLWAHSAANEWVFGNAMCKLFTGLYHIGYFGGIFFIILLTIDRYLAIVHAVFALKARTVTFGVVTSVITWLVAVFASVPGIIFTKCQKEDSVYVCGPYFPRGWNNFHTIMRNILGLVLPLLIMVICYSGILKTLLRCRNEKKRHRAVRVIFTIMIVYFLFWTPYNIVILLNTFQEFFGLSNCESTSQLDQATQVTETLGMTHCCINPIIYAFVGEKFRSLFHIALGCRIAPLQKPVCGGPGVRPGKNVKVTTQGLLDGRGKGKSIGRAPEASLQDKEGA

In order of falling “CCR2 % ANTAGONISM” value:
1. O=S(=O)(Nc1cc(Cl)ccc1[S+]([O-])Cc1ncc[nH]1)c1ccc(Cl)c(C(F)(F)F)c1 (stereo not drawn) [4-chloro-N-{5-chloro-2-[(1H-imidazol-2-ylmethyl)sulfinyl]phenyl}-3-(trifluoromethyl)benzenesulfonamide]  109%
2. O=S(=O)(Nc1cc(Cl)ccc1[S+]([O-])Cc1ncc[nH]1)c1cc2ccccc2o1 (stereo not drawn) [N-{5-chloro-2-[(1H-imidazol-2-ylmethyl)sulfinyl]phenyl}-1-benzofuran-2-sulfonamide]  108%
3. CN(C)C(=O)CC[S+]([O-])c1ccc(Cl)cc1NS(=O)(=O)c1cc2ccccc2o1 (stereo not drawn) [3-({2-[(1-benzofuran-2-ylsulfonyl)amino]-4-chlorophenyl}sulfinyl)-N,N-dimethylpropanamide]  104%
4. Nc1cccc(CS(=O)(=O)c2ccc(Cl)cc2NS(=O)(=O)c2cc3ccccc3o2)n1 [N-(2-{[(6-aminopyridin-2-yl)methyl]sulfonyl}-5-chlorophenyl)-1-benzofuran-2-sulfonamide]  102%
5. Nc1cc(CS(=O)(=O)c2ccc(Cl)cc2NS(=O)(=O)c2cc3ccccc3o2)ccn1 [N-(2-{[(2-aminopyridin-4-yl)methyl]sulfonyl}-5-chlorophenyl)-1-benzofuran-2-sulfonamide]  101%
6. CN(C)C(=O)C[S+]([O-])c1ccc(Cl)cc1NS(=O)(=O)c1ccc(Cl)c(C(F)(F)F)c1 (stereo not drawn) [2-{[4-chloro-2-({[4-chloro-3-(trifluoromethyl)phenyl]sulfonyl}amino)phenyl]sulfinyl}-N,N-dimethylacetamide]  100%
7. O=S(=O)(Nc1cc(Cl)ccc1[S+]([O-])Cc1cc[nH]n1)c1cc2ccccc2o1 (stereo not drawn) [N-{5-chloro-2-[(1H-pyrazol-3-ylmethyl)sulfinyl]phenyl}-1-benzofuran-2-sulfonamide]  99%
8. CS(=O)(=O)c1ccc(Cl)cc1NS(=O)(=O)c1ccco1 [N-[5-chloro-2-(methylsulfonyl)phenyl]furan-2-sulfonamide]  99%
9. C[S+]([O-])c1ccc(Cl)cc1NS(=O)(=O)c1ccc(F)cc1F (stereo not drawn) [N-[5-chloro-2-(methylsulfinyl)phenyl]-2,4-difluorobenzenesulfonamide]  98%
10. NCCSc1ccc(Cl)cc1NS(=O)(=O)c1ccc(Cl)c(C(F)(F)F)c1 [N-{2-[(2-aminoethyl)thio]-5-chlorophenyl}-4-chloro-3-(trifluoromethyl)benzenesulfonamide]  97%
11. O=S(=O)(Cc1cccc(O)c1)c1ccc(Cl)cc1NS(=O)(=O)c1cc2ccccc2o1 [N-{5-chloro-2-[(3-hydroxybenzyl)sulfonyl]phenyl}-1-benzofuran-2-sulfonamide]  96%
12. Nc1cccc(C[S+]([O-])c2ccc(Cl)cc2NS(=O)(=O)c2cc3ccccc3o2)c1 (stereo not drawn) [N-{2-[(3-aminobenzypsulfinyl]-5-chlorophenyl}-1-benzofuran-2-sulfonamide]  96%
13. Cc1n[nH]c(C)c1CCS(=O)(=O)c1ccc(Cl)cc1NS(=O)(=O)c1cc2ccccc2o1 [N-(5-chloro-2-{[2-(3,5-dimethyl-1H-pyrazol-4-yl)ethyl]sulfonyl}phenyl)-1-benzofuran-2-sulfonamide]  96%
14. Nc1cccc(CS(=O)(=O)c2ccc(Cl)cc2NS(=O)(=O)c2cc3ccccc3o2)[n+]1[O-] [N-(2-{[(6-amino-1-oxidopyridin-2-yl)methyl]sulfonyl}-5-chlorophenyl)-1-benzofuran-2-sulfonamide]  95%
15. N#Cc1ccc(S(=O)(=O)Cc2ccccc2)c(NS(=O)(=O)c2cc3ccccc3o2)c1 [N-[2-(benzylsulfonyl)-5-cyanophenyl]-1-benzofuran-2-sulfonamide]  95%
16. O=S(=O)(Nc1cc(Cl)ccc1[S+]([O-])Cc1cccnc1F)c1cc2ccccc2o1 (stereo not drawn) [N-(5-chloro-2-{[(2-fluoropyridin-3-yl)methyl]sulfinyl}phenyl)-1-benzofuran-2-sulfonamide]  95%
17. CSc1ccc(Cl)cc1NS(=O)(=O)c1ccc(Cl)cc1 [4-chloro-N-[5-chloro-2-(methylthio)phenyl]benzenesulfonamide]  94%
18. CSc1ccc(Cl)cc1NS(=O)(=O)c1ccc(Cl)c(C)c1 [4-chloro-N-[5-chloro-2-(methylthio)phenyl]-3-methylbenzenesulfonamide]  93%
19. Nc1ccccc1C[S+]([O-])c1ccc(Cl)cc1NS(=O)(=O)c1cc2ccccc2o1 (stereo not drawn) [N-{2-[(2-aminobenzyl)sulfinyl]-5-chlorophenyl}-1-benzofuran-2-sulfonamide]  93%
20. Nc1cccc(C[S+]([O-])c2ccc(Cl)cc2NS(=O)(=O)c2cccc(Cl)c2)c1 (stereo not drawn) [N-{2-[(3-aminobenzypsulfinyl]-5-chlorophenyl}-3-chlorobenzenesulfonamide]  93%
21. CN(C)C(=O)CSc1ccc(Cl)cc1NS(=O)(=O)c1ccc(Cl)c(C(F)(F)F)c1 [2-{[4-chloro-2-({[4-chloro-3-(trifluoromethyl)phenyl]sulfonyl}amino)phenyl]thio}-N,N-dimethylacetamide]  92%
22. CN(C)C(=O)CC[S+]([O-])c1ccc(Cl)cc1NS(=O)(=O)c1ccc(Cl)c(C(F)(F)F)c1 (stereo not drawn) [3-{[4-chloro-2-({[4-chloro-3-(trifluoromethyl)phenyl]sulfonyl}amino)phenyl]sulfinyl}-N,N-dimethylpropanamide]  89%
23. O=[N+]([O-])c1cccc([S+]([O-])c2ccc(Cl)cc2NS(=O)(=O)c2ccc(Cl)c(C(F)(F)F)c2)c1 (stereo not drawn)  85%
24. O=[N+]([O-])c1cccc(CS(=O)(=O)c2ccc(F)cc2NS(=O)(=O)c2cc3ccccc3o2)c1 [N-{5-fluoro-2-[(3-nitrobenzyl)sulfonyl]phenyl}-1-benzofuran-2-sulfonamide]  81%
25. CN(C)CCC[S+]([O-])c1ccc(Cl)cc1NS(=O)(=O)c1cc2ccccc2o1 (stereo not drawn) [N-(5-chloro-2-{[3-(dimethylamino)propyl]sulfinyl}phenyl)-1-benzofuran-2-sulfonamide]  81%
26. O=S(=O)(Cc1ccc[n+]([O-])c1)c1ccc(Cl)cc1NS(=O)(=O)c1cc2ccccc2o1 [N-(5-chloro-2-{[(1-oxidopyridin-3-yl)methyl]sulfonyl}phenyl)-1-benzofuran-2-sulfonamide]  81%
27. C[S+]([O-])c1ccc(Cl)cc1NS(=O)(=O)c1ccc(Cl)c(C(F)(F)F)c1 (stereo not drawn) [4-chloro-N-[5-chloro-2-(methylsulfinyl)phenyl]-3-(trifluoromethyl)benzenesulfonamide]  78%
28. CC(C)Sc1ccc(Cl)cc1NS(=O)(=O)c1ccc(Cl)c(C(F)(F)F)c1 [4-chloro-N-[5-chloro-2-(isopropylthio)phenyl]-3-(trifluoromethyl)benzenesulfonamide]  72%
29. O=[N+]([O-])c1cccc(CSc2ccc(Cl)cc2NS(=O)(=O)c2cc3ccccc3o2)c1 [N-{5-chloro-2-[(3-nitrobenzyl)thio]phenyl}-1-benzofuran-2-sulfonamide]  63%
30. O=c1cc(C[S+]([O-])c2ccc(Cl)cc2NS(=O)(=O)c2cc3ccccc3o2)[nH]c(=O)[nH]1 (stereo not drawn) [N-(5-chloro-2-{[(2,6-dioxo-1,2,3,6-tetrahydropyrimidin-4-yl)methyl]sulfinyl}phenyl)-1-benzofuran-2-sulfonamide]  62%
31. C[S+]([O-])c1ccc(Cl)cc1NS(=O)(=O)c1cccs1 (stereo not drawn) [N-[5-chloro-2-(methylsulfinyl)phenyl]thiophene-2-sulfonamide]  53%
32. Nc1nnc(C[S+]([O-])c2ccc(Cl)cc2NS(=O)(=O)c2cc3ccccc3o2)[nH]1 (stereo not drawn) [N-(2-{[(5-amino-4H-1,2,4-triazol-3-yl)methyl]sulfinyl}-5-chlorophenyl)-1-benzofuran-2-sulfonamide]  48%
33. CC(C)(C)OC(=O)Nc1cc(CSc2ccc(Cl)cc2NS(=O)(=O)c2cc3ccccc3o2)ccn1 [tert-butyl {4-[({2-[(1-benzofuran-2-ylsulfonyl)amino]-4-chlorophenyl}thio)methyl]pyridin-2-yl}carbamate]  40%
34. CC(C)(C)OC(=O)Nc1cc(CS(=O)(=O)c2ccc(Cl)cc2NS(=O)(=O)c2cc3ccccc3o2)cc[n+]1[O-] [tert-butyl {4-[({2-[(1-benzofuran-2-ylsulfonyl)amino]-4-chlorophenyl}sulfonyl)methyl]-1-oxidopyridin-2-yl}carbamate]  29%
35. O=[N+]([O-])c1ccc(CS(=O)(=O)c2ccc(Cl)cc2NS(=O)(=O)c2cc3ccccc3o2)cc1 [N-{5-chloro-2-[(4-nitrobenzyl)sulfonyl]phenyl}-1-benzofuran-2-sulfonamide]  20%

In order of rising IC50:
1. C[S+]([O-])c1ccc(Cl)cc1NS(=O)(=O)c1ccc(Cl)c(C(F)(F)F)c1 (stereo not drawn) [4-chloro-N-[5-chloro-2-(methylsulfinyl)phenyl]-3-(trifluoromethyl)benzenesulfonamide]  14 nM
2. Nc1cccc(CS(=O)(=O)c2ccc(Cl)cc2NS(=O)(=O)c2cc3ccccc3o2)n1 [N-(2-{[(6-aminopyridin-2-yl)methyl]sulfonyl}-5-chlorophenyl)-1-benzofuran-2-sulfonamide]  15 nM
3. Nc1cccc(C[S+]([O-])c2ccc(Cl)cc2NS(=O)(=O)c2cc3ccccc3o2)c1 (stereo not drawn) [N-{2-[(3-aminobenzypsulfinyl]-5-chlorophenyl}-1-benzofuran-2-sulfonamide]  39 nM
4. N#Cc1ccc(S(=O)(=O)Cc2ccccc2)c(NS(=O)(=O)c2cc3ccccc3o2)c1 [N-[2-(benzylsulfonyl)-5-cyanophenyl]-1-benzofuran-2-sulfonamide]  56 nM
5. O=S(=O)(Cc1cccc(O)c1)c1ccc(Cl)cc1NS(=O)(=O)c1cc2ccccc2o1 [N-{5-chloro-2-[(3-hydroxybenzyl)sulfonyl]phenyl}-1-benzofuran-2-sulfonamide]  56 nM
6. O=S(=O)(Nc1cc(Cl)ccc1[S+]([O-])Cc1cccnc1F)c1cc2ccccc2o1 (stereo not drawn) [N-(5-chloro-2-{[(2-fluoropyridin-3-yl)methyl]sulfinyl}phenyl)-1-benzofuran-2-sulfonamide]  79 nM
7. CN(C)C(=O)CC[S+]([O-])c1ccc(Cl)cc1NS(=O)(=O)c1ccc(Cl)c(C(F)(F)F)c1 (stereo not drawn) [3-{[4-chloro-2-({[4-chloro-3-(trifluoromethyl)phenyl]sulfonyl}amino)phenyl]sulfinyl}-N,N-dimethylpropanamide]  96 nM
8. Nc1ccccc1C[S+]([O-])c1ccc(Cl)cc1NS(=O)(=O)c1cc2ccccc2o1 (stereo not drawn) [N-{2-[(2-aminobenzyl)sulfinyl]-5-chlorophenyl}-1-benzofuran-2-sulfonamide]  115 nM
9. CN(C)C(=O)CSc1ccc(Cl)cc1NS(=O)(=O)c1ccc(Cl)c(C(F)(F)F)c1 [2-{[4-chloro-2-({[4-chloro-3-(trifluoromethyl)phenyl]sulfonyl}amino)phenyl]thio}-N,N-dimethylacetamide]  118 nM
10. Nc1cccc(C[S+]([O-])c2ccc(Cl)cc2NS(=O)(=O)c2cccc(Cl)c2)c1 (stereo not drawn) [N-{2-[(3-aminobenzypsulfinyl]-5-chlorophenyl}-3-chlorobenzenesulfonamide]  159 nM
11. CN(C)C(=O)CC[S+]([O-])c1ccc(Cl)cc1NS(=O)(=O)c1cc2ccccc2o1 (stereo not drawn) [3-({2-[(1-benzofuran-2-ylsulfonyl)amino]-4-chlorophenyl}sulfinyl)-N,N-dimethylpropanamide]  160 nM
12. O=S(=O)(Nc1cc(Cl)ccc1[S+]([O-])Cc1ncc[nH]1)c1ccc(Cl)c(C(F)(F)F)c1 (stereo not drawn) [4-chloro-N-{5-chloro-2-[(1H-imidazol-2-ylmethyl)sulfinyl]phenyl}-3-(trifluoromethyl)benzenesulfonamide]  163 nM
13. C[S+]([O-])c1ccc(Cl)cc1NS(=O)(=O)c1ccc(F)cc1F (stereo not drawn) [N-[5-chloro-2-(methylsulfinyl)phenyl]-2,4-difluorobenzenesulfonamide]  236 nM
14. Nc1cccc(CS(=O)(=O)c2ccc(Cl)cc2NS(=O)(=O)c2cc3ccccc3o2)[n+]1[O-] [N-(2-{[(6-amino-1-oxidopyridin-2-yl)methyl]sulfonyl}-5-chlorophenyl)-1-benzofuran-2-sulfonamide]  264 nM
15. CN(C)C(=O)C[S+]([O-])c1ccc(Cl)cc1NS(=O)(=O)c1ccc(Cl)c(C(F)(F)F)c1 (stereo not drawn) [2-{[4-chloro-2-({[4-chloro-3-(trifluoromethyl)phenyl]sulfonyl}amino)phenyl]sulfinyl}-N,N-dimethylacetamide]  268 nM
16. CS(=O)(=O)c1ccc(Cl)cc1NS(=O)(=O)c1ccco1 [N-[5-chloro-2-(methylsulfonyl)phenyl]furan-2-sulfonamide]  345 nM
17. Nc1cc(CS(=O)(=O)c2ccc(Cl)cc2NS(=O)(=O)c2cc3ccccc3o2)ccn1 [N-(2-{[(2-aminopyridin-4-yl)methyl]sulfonyl}-5-chlorophenyl)-1-benzofuran-2-sulfonamide]  364 nM
18. CC(C)Sc1ccc(Cl)cc1NS(=O)(=O)c1ccc(Cl)c(C(F)(F)F)c1 [4-chloro-N-[5-chloro-2-(isopropylthio)phenyl]-3-(trifluoromethyl)benzenesulfonamide]  379 nM
19. CSc1ccc(Cl)cc1NS(=O)(=O)c1ccc(Cl)cc1 [4-chloro-N-[5-chloro-2-(methylthio)phenyl]benzenesulfonamide]  406 nM
20. CSc1ccc(Cl)cc1NS(=O)(=O)c1ccc(Cl)c(C)c1 [4-chloro-N-[5-chloro-2-(methylthio)phenyl]-3-methylbenzenesulfonamide]  453 nM
21. O=[N+]([O-])c1cccc([S+]([O-])c2ccc(Cl)cc2NS(=O)(=O)c2ccc(Cl)c(C(F)(F)F)c2)c1 (stereo not drawn)  509 nM
22. O=S(=O)(Nc1cc(Cl)ccc1[S+]([O-])Cc1cc[nH]n1)c1cc2ccccc2o1 (stereo not drawn) [N-{5-chloro-2-[(1H-pyrazol-3-ylmethyl)sulfinyl]phenyl}-1-benzofuran-2-sulfonamide]  634 nM
23. O=[N+]([O-])c1cccc(CS(=O)(=O)c2ccc(F)cc2NS(=O)(=O)c2cc3ccccc3o2)c1 [N-{5-fluoro-2-[(3-nitrobenzyl)sulfonyl]phenyl}-1-benzofuran-2-sulfonamide]  693 nM
24. NCCSc1ccc(Cl)cc1NS(=O)(=O)c1ccc(Cl)c(C(F)(F)F)c1 [N-{2-[(2-aminoethyl)thio]-5-chlorophenyl}-4-chloro-3-(trifluoromethyl)benzenesulfonamide]  1070 nM
25. Cc1n[nH]c(C)c1CCS(=O)(=O)c1ccc(Cl)cc1NS(=O)(=O)c1cc2ccccc2o1 [N-(5-chloro-2-{[2-(3,5-dimethyl-1H-pyrazol-4-yl)ethyl]sulfonyl}phenyl)-1-benzofuran-2-sulfonamide]  1090 nM
26. C[S+]([O-])c1ccc(Cl)cc1NS(=O)(=O)c1cccs1 (stereo not drawn) [N-[5-chloro-2-(methylsulfinyl)phenyl]thiophene-2-sulfonamide]  1110 nM
27. O=S(=O)(Cc1ccc[n+]([O-])c1)c1ccc(Cl)cc1NS(=O)(=O)c1cc2ccccc2o1 [N-(5-chloro-2-{[(1-oxidopyridin-3-yl)methyl]sulfonyl}phenyl)-1-benzofuran-2-sulfonamide]  1750 nM
28. O=S(=O)(Nc1cc(Cl)ccc1[S+]([O-])Cc1ncc[nH]1)c1cc2ccccc2o1 (stereo not drawn) [N-{5-chloro-2-[(1H-imidazol-2-ylmethyl)sulfinyl]phenyl}-1-benzofuran-2-sulfonamide]  1900 nM
29. CC(C)(C)OC(=O)Nc1cc(CSc2ccc(Cl)cc2NS(=O)(=O)c2cc3ccccc3o2)ccn1 [tert-butyl {4-[({2-[(1-benzofuran-2-ylsulfonyl)amino]-4-chlorophenyl}thio)methyl]pyridin-2-yl}carbamate]  2000 nM
30. O=[N+]([O-])c1ccc(CS(=O)(=O)c2ccc(Cl)cc2NS(=O)(=O)c2cc3ccccc3o2)cc1 [N-{5-chloro-2-[(4-nitrobenzyl)sulfonyl]phenyl}-1-benzofuran-2-sulfonamide]  2160 nM
31. CC(C)(C)OC(=O)Nc1cc(CS(=O)(=O)c2ccc(Cl)cc2NS(=O)(=O)c2cc3ccccc3o2)cc[n+]1[O-] [tert-butyl {4-[({2-[(1-benzofuran-2-ylsulfonyl)amino]-4-chlorophenyl}sulfonyl)methyl]-1-oxidopyridin-2-yl}carbamate]  2870 nM

Source: patent US9663460B2, “Sulfur derivatives as chemokine receptor modulators” (ALLERGAN, INC., priority 2010, dated 2017)
